Results taken from the NIST ThermoML archive (doi:10.1016/j.jct.2017.02.004).
Numbers after ± are expanded uncertainties.

Assay: mn = molality of the nth substance listed, in mol/kg
Conditions: 100 kPa, Liquid; for speed of sound: Frequency=3 MHz, Single path-length method; for mass density: Vibrating tube method

[Cl-].[Li+] [lithium chloride] + O
Conditions | mass density, 288.15 K [kg/m3] | mass density, 293.15 K [kg/m3] | mass density, 298.15 K [kg/m3] | mass density, 303.15 K [kg/m3] | mass density, 308.15 K [kg/m3] | speed of sound, 288.15 K [m/s] | speed of sound, 293.15 K [m/s] | speed of sound, 298.15 K [m/s] | speed of sound, 303.15 K [m/s] | speed of sound, 308.15 K [m/s]
m1 = 0.05 | 1000.33 ± 0.31 | 999.427 ± 0.31 | 998.265 ± 0.31 | 996.862 ± 0.31 | 995.242 ± 0.31 | 1469.6 ± 1 | 1485.6 ± 1 | – | 1512 ± 1 | –
m1 = 0.1002 | 1001.57 ± 0.31 | 1000.66 ± 0.31 | 999.489 ± 0.31 | 998.083 ± 0.31 | – | 1472.7 ± 1 | 1488.6 ± 1 | 1502.6 ± 1 | 1514.8 ± 1 | 1525.3 ± 1
m1 = 0.1498 | 1002.78 ± 0.31 | 1001.87 ± 0.31 | 1000.69 ± 0.31 | 999.281 ± 0.31 | 997.651 ± 0.31 | 1475.8 ± 1 | 1491.6 ± 1 | 1505.5 ± 1 | 1517.6 ± 1 | –
m1 = 0.1999 | 1004 ± 0.31 | 1003.08 ± 0.31 | 1001.89 ± 0.31 | 1000.48 ± 0.31 | 998.845 ± 0.31 | 1478.8 ± 1 | 1494.6 ± 1 | 1508.3 ± 1 | 1520.3 ± 1 | 1530.7 ± 1
m1 = 0.2502 | 1005.22 ± 0.31 | 1004.28 ± 0.31 | 1003.1 ± 0.31 | 1001.68 ± 0.31 | 1000.04 ± 0.31 | 1482 ± 1.1 | 1497.6 ± 1 | 1511.2 ± 1 | – | –
m1 = 0.2999 | 1006.41 ± 0.31 | 1005.47 ± 0.31 | 1004.28 ± 0.31 | 1002.86 ± 0.31 | 1001.21 ± 0.31 | 1485 ± 1 | 1500.5 ± 1 | 1514.1 ± 1 | 1525.9 ± 1 | 1536 ± 1
m1 = 0.3503 | 1007.63 ± 0.31 | 1006.67 ± 0.31 | 1005.47 ± 0.31 | 1004.05 ± 0.31 | 1002.4 ± 0.31 | 1488.1 ± 1 | 1503.5 ± 1 | 1516.9 ± 1 | 1528.6 ± 1 | 1538.7 ± 1
m1 = 0.4 | 1008.83 ± 0.31 | 1007.86 ± 0.31 | 1006.65 ± 0.31 | 1005.22 ± 0.31 | 1003.57 ± 0.31 | 1491.1 ± 1.1 | 1506.3 ± 1 | 1519.6 ± 1 | 1531.2 ± 1 | 1541.2 ± 1
m1 = 0.4503 | 1010.02 ± 0.31 | 1009.04 ± 0.31 | 1007.83 ± 0.31 | 1006.4 ± 0.31 | 1004.74 ± 0.31 | 1494.2 ± 1.1 | 1509.2 ± 1 | 1522.4 ± 1 | 1533.9 ± 1 | 1543.8 ± 1
m1 = 0.5 | 1011.21 ± 0.31 | 1010.21 ± 0.31 | 1008.99 ± 0.31 | 1007.56 ± 0.31 | 1005.9 ± 0.31 | 1497.2 ± 1.1 | 1512.1 ± 1 | 1525.1 ± 1 | 1536.6 ± 1 | 1546.4 ± 1
